In article PMC8820799, “Angiogenesis and anti-leukaemia activity of novel indole derivatives as potent colchicine binding site inhibitors” (Journal of Enzyme Inhibition and Medicinal Chemistry, 2022):

Columns and labels:
[1] = tested on: THP-1; experiment: CCK-8 assay, THP-1; type: cell-based; conditions: Homo sapiens, leukaemia, AML, CCK-8, 72 h
Experimental: (§1) Cells were seeded in 96-well plates at a density of 8 × 10^3 per well and exposed to different concentrations of compounds for 72 h. Subsequently, 10 µL CCK8 solution was added to each well and co-incubated for another 3–4 h at 37 °C. The absorbance was determined at 450 nm. Data was calculated with GraphPad Prism5 software.[32]

[2] = tested on: MV4-11; experiment: CCK-8 assay, MV4-11; type: cell-based; conditions: Homo sapiens, leukaemia, AML, CCK-8, 72 h
Experimental: as §1

[3] = tested on: K562; experiment: CCK-8 assay, K562; type: cell-based; conditions: Homo sapiens, leukaemia, CML, CCK-8, 72 h
Experimental: as §1

[4] = tested on: Jurkat; experiment: CCK-8 assay, Jurkat; type: cell-based; conditions: Homo sapiens, leukaemia, ALL, CCK-8, 72 h
Experimental: as §1

[5] = tested on: HuT 78; experiment: CCK-8 assay, HuT 78; type: cell-based; conditions: Homo sapiens, HuT78; leukaemia, ALL; CCK-8, 72 h
Experimental: as §1

[6] = tested on: CCRF-CEM; experiment: CCK-8 assay, CCRF-CEM; type: cell-based; conditions: Homo sapiens, leukaemia, ALL, CCK-8, 72 h
Experimental: as §1

[7] = tested on: HL60; experiment: CCK-8 assay, HL60; type: cell-based; conditions: Homo sapiens, HL-60; leukaemia, APL; CCK-8, 72 h
Experimental: as §1

[8] = molecular target: T1, Tubulin isolated from porcine brain tissue (Sus scrofa, UniProt P02550+P02554); experiment: Tubulin polymerisation assay; type: biochemical; conditions: triplicate, mean ± SD; read-out: Tubulin (tubulin inhibitory polymerisation IC50)
T1 construct: purchased Cytoskeleton (Denver, CO), via Beyotime, China; host or cells: porcine brain tissue
T1 sequence (P02554 whole entry): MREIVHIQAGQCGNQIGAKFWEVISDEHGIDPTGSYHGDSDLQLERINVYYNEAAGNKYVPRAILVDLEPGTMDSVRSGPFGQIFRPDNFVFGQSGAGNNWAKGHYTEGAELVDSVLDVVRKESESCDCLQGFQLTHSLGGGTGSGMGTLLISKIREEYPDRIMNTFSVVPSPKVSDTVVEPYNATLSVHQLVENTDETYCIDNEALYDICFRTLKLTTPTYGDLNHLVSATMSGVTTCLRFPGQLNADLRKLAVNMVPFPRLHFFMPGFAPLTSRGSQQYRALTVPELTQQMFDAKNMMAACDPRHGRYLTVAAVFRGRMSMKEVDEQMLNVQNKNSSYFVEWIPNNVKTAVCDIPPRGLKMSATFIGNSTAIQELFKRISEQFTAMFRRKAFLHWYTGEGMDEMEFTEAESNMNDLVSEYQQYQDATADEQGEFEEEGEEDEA
T1 sequence (P02550 whole entry): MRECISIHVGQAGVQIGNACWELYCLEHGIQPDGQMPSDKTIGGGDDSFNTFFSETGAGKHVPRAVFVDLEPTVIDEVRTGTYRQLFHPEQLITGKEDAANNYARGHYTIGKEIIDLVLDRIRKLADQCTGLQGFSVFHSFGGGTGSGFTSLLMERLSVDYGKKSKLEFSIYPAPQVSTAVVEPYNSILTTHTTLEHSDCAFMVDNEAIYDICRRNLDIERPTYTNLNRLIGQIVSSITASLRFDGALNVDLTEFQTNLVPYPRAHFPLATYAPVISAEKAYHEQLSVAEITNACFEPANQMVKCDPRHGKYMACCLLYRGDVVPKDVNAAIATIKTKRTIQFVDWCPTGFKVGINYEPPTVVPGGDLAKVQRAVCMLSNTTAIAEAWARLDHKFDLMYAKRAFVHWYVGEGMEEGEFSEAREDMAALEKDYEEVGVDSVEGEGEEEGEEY
Experimental: Tubulin polymerisation was determined with the tubulin polymerisation assay kit (Cytoskeleton, Denver, CO which was purchased from Cytoskeleton, Beyotime, China. Tubulin isolated from porcine brain tissue was used in this commercial kit.) It is based on the principal that light is scattered by microtubules to an extent that is proportional to the concentration of the microtubule polymer. Compounds that interact with tubulin will alter the polymerisation of tubulin, and this can be detected using a spectrophotometer. Tubulin polymerisation dynamics was monitored through measuring the change of absorbance at 340 nm every 2 min for 30 min at 37 °C on a spectrophotometer.

[9] = tested on: transgenic zebrafish (FLK-1:EGFP); experiment: Zebrafish angiogenesis assay (ISVs); type: in vivo; conditions: Danio rerio, transgenic zebrafish; triplicate, mean ± SD; read-out: Zebrafish (antiangiogenic activity IC50)
Experimental: The transgenic flk: enhanced GFP zebrafish embryos were generated by pair-wise mating, collected and sorted into the 6-well plate (n = 30 per well) with 1 ml of aquaculture water (0.2 g/L of Instant Ocean Salt in distilled water) and raised at 28 °C. Then the embryos staged at 12 h post fertilisation (hpf) were treated with the indicated concentrations of compounds which were added into embryo water. About 30 embryos were screened for each concentration gradient. At 30hpf, the treated embryos were anaesthetised with 0.02% tricaine in embryo water and photographed. The numbers of ISVs were recorded under confocal microscopy. Results were obtained from three independent determinations and presented as mean ± SD.[38]

IC50 [8] [nM]	melting point [°C]	SMILES	IC50 [1] [nM]	IC50 [2] [nM]	IC50 [3] [nM]	IC50 [4] [nM]	IC50 [5] [nM]	IC50 [6] [nM]	IC50 [7] [nM]	IC50 [9] [nM]
–	–	COc1ccc(/C=C\c2cc(OC)c(OC)c(OC)c2)cc1O [CA-4, Combretastatin A-4, reference compound]	80 ± 10	120 ± 30	270 ± 10	190 ± 20	240 ± 40	710 ± 110	260 ± 50	–
24800 ± 2100	160 to 163	COc1cc(C(=O)/C=C/c2cn(Cc3ccccc3)c3ccccc23)cc(OC)c1OC [Compound 29d, (E)-3–(1-Benzyl-1H-indol-3-yl)-1–(3,4,5-trimethoxyphenyl)prop-2-en-1-one]	–	–	–	–	–	–	–	6700 ± 500
25600	–	COc1cc(C(=O)/C=C/c2ccnc3ccccc23)cc(OC)c1OC [DYT-1, (E)-3-(quinolin-4-yl)-1–(3,4,5-trimethoxyphenyl)prop-2-en-1-one]	–	–	6200	7900	–	–	–	38400
